Measurements: US20240168011A1, “CLEARANCE ASSAY” (Akershus Universitetssykehus HF, priority 2021, published 2024)
“Also recorded” adds a separate entry of the source. Where a name gives a salt, the structure may show the parent alone.

Columns and labels:
THP-1 cells [1] = assay: Chase assay of Aβ catabolism, Simoa immunoassays of intracellular Aβ fragments (Example 1); format: cell-based; conditions: TPA-differentiated THP-1; 100 ng/ml Abeta40 2 h, 4 hours chase; 100 nM Bafilomycin, 100 nM Rapamycin, 100 μM Neprilysin inhibitor, 200 nM BACE inhibitor, 1 μM IDE inhibitor; vs 4 hour chase
Procedure: To adjust for inter-day variations in measurements for the different experiments, values were normalized using the baseline condition as the reference for each day of experiments using the following formula: [(biomarker value/mean biomarker value)[…])].
Statistical analyses were carried out with one-way ANOVA models. If a significant (p<0.05) omnibus (F-test) ANOVA was shown, planned comparisons according to our hypotheses were carried out. This included a main comparison between the reference condition and experimental conditions (endolysosomal inhibitors and autophagosome activators). The Figures thus indicate within each bar the percentage change, and associated statistical significance (p-value) or lack thereof (n.s.), as compared to the reference condition (100%) (i.e. the main comparison). For some experiments (FIGS. 4, 5 and 7), additional comparisons between experimental conditions were conducted in accordance with hypotheses. Significant between-group differences for these comparisons are shown with horizontal bars with the associated statistical significance (p-value), or lack thereof (n.s.).
Aβ catabolism and detoxification, and the effect of example inhibitors and activators thereon, was measured using antibodies specific for intracellular Aβ mid-domain peptides, i.e. catabolism products. In particular, inhibition of endolysosomal activity is expected to reduce degradation and increase concentrations of species, here studied with Bafilomycin, which blocks V-ATPase and inhibits acidification of endolysosomes, thereby inhibiting endolysosomal enzyme activities. Addition of inhibitors of endolysosomal enzymes Neprilysin (Saido 2013) and Insulin Degradation Enzymes are expected to have similar effects (Jha, Jha et al. 2015, Sikanyika, Parkington et al. 2019), whereas BACE1 is involved both in Aβ generation and […] (Vassar, Kovacs et al. 2009, Liebsch, Kulic et al. 2019). Enhancing macroautophagy using Rapamycin is also expected to increase Aβ catabolism (FIG. 3; Spilman, Podlutskaya et al. 2010, Malik, Maddison et al. 2019)
Immunoassays were developed on the single molecule array (Simoa) platform (Quanterix, US) using proprietary antibodies directed against different epitopes of the amyloid β protein (Shown in FIG. 1; SEQ ID NOs: 3-5). The Aβx-40/42 assay used a 40-42 end-specific sheep monoclonal AB.4D7 (Bioventix plc, UK) as the capture antibody, and a sheep monoclonal AB.2A9 (Bioventix plc, UK) with a mid-domain epitope (SEQ ID NO: 7) as the detection antibody. The 40-42 end-specific antibody was raised against the epitope shown in SEQ ID NO: 5, and binds the C-terminal of both Aβ1-42 (SEQ ID NO: 1) and Aβ1-40 (SEQ ID NO: 2). The Aβ20-x assay used the same AB.4D7 antibody as the capture antibody, and the highly specific 20-cut point sheep monoclonal antibody, ABNT.2B8 (Bioventix plc, UK) as the detection antibody. For the Aβx-34 assay, AB.2A9 was used as the capture antibody and an anti-complex antibody, BVX.33420/H3 (Bioventix plc, UK), which preferentially binds a fragment having the C-terminal of SEQ ID NO: 6, was used as the detection antibody, ensuring mid-domain x-34 specificity.
Chase Assays THP-1 cells were differentiated toward macrophages by a 48 hour treatment with 100 nM TPA (12-O-tetradecanoylphorbol-13-acetate). Media was replaced with fresh medium with or without modulators of the autophagic/endolysosomal system: 100 nM Bafilomycin, 100 nM Rapamycin, 100 μM Neprilysin inhibitor, 200 nM BACE inhibitor, or 1 μM IDE inhibitor, or a triple combination of the enzyme inhibitors Neprilysin inhibitor, BACE inhibitor and IDE inhibitor. The cells were incubated for 1 hour before adding 100 ng/ml Abeta40 to the cells. Cells were further incubated for 2 hours before removing Abeta40 and a continued 4 hours chase with or without the respective modulators. Cells were washed before adding lysis buffer. Lysates were kept at −80° C. until analysis.

[2] = tested on: cells in an innate immune model system; conditions: DHA treatment of cells in an innate immune model system; cited from earlier work
THP-1 cells [3] = assay: Chase assay with proposed AD interventions, Mesoscale immunoassay (Example 2); format: cell-based; conditions: 16 hours DHA (100 μM) and/or NS1738 (10 μM); Aβ1-40 500 ng/ml; reference Aβ40 4 hour chase
Procedure: An immunoassay was set up on a Mesoscale platform using the same antibodies as, and a similar method to, Example 1. Cells were incubated overnight (16 hours) with DHA (100 μM) and/or NS1738 (10 μM). Aβ1-40 was added at a concentration of 500 ng/ml, and removed from the media before the 4 hour chase. DHA and NS1738 were removed from the media during the 4 hour chase.

THP-1 cells [4] = assay: Clearance assay on a background of LPS inflammatory activation, Mesoscale immunoassay (Example 4); format: cell-based; conditions: with LPS, 16 h; Aβ1-40 2 h; 4 h chase; reference LPS+Aβ40 4 hour chase
Procedure: The immunoassay was set up on a Mesoscale platform. THP-1 cells were differentiated towards phagocytic monocytes/macrophages during a 48 h incubation with 12-O-tetra-decanoylphorbol-13-acetate (TPA). Media were replaced with fresh medium containing LPS alone or LPS together with DHA or NS1738 or combination of DHA and NS1738, for an overnight incubation (16 h). The marker protein (Aβ1-40) was added to the cells for an additional 2 h incubation. Media were replaced with fresh medium without any additives and the cells were further incubated for a 4 h chase period. The cells were kept cold, media removed, and the cells washed with cold PBS. Lysis buffer containing protease inhibitors and sodium dodecyl sulfate (SDS) was added to the cells. After lysis, the cells were scraped and transferred to tubes and kept in a −80° C. freezer. Lysates were sonicated and treated with DNase before analysis on the degradation assays.

[5] = target: Aβ20-34, mid-domain fragment of Aβ1-42 and Aβ1-40; assay: monocyte lysate pool + 12 pg/ml Aβ20-34 pre-incubated with the antibody, then Simoa Aβx-34 immunoassay
[6] = target: Aβ20-34, mid-domain fragment of Aβ1-42 and Aβ1-40; assay: monocyte lysate pool + 12 pg/ml Aβ20-34 pre-incubated with the antibody, then Simoa Aβx-34 immunoassay (untreated 13.8 pg/ml)

Molecule	intracellular Aβ20-x level (THP-1 cells [1])	intracellular Aβx-34 level (THP-1 cells [1])	intracellular Aβx-40/42 level (THP-1 cells [1])	other results
CC(C)C[C@H](NP(=O)(O)O[C@@H]1O[C@@H](C)[C@H](O)[C@@H](O)[C@H]1O)C(=O)N[C@@H](Cc1c[nH]c2ccccc12)C(=O)O [Neprilysin inhibitor, Phosphoramidon disodium salt]	increases	unchanged	increases	
NC1=N[C@@]2(c3cc(NC(=O)c4ccc(F)cn4)ccc3F)COC[C@H]2CS1 [BACE inhibitor, LY2886721]	increases	no effect	no effect	
CO/C1=C\C(C)=C\[C@@H](C)[C@@H](O)[C@@H](C)C/C(C)=C/C=C/[C@H](OC)[C@@H]([C@@H](C)[C@@H](O)[C@H](C)[C@@]2(O)C[C@@H](O)[C@H](C)[C@@H](C(C)C)O2)OC1=O [Bafilomycin, Bafilomycin A1]	significantly increases	non-significantly increases	significantly increases	
CC/C=C\C/C=C\C/C=C\C/C=C\C/C=C\C/C=C\CCC(=O)O [DHA, (4Z, 7Z, 10Z, 13Z, 16Z, 19Z)-4,7, 10, 13, 16, 19-docosahexaenoic acid]				Aβ1-42 phagocytosis and degradation [2]: increase; intracellular Aβx-34 level (THP-1 cells [3]): reduces the amount; also recorded: decreased; intracellular Aβ20-x level (THP-1 cells [4]): continue to have an effect; intracellular Aβx-34 level (THP-1 cells [4]): continue to have an effect; intracellular Aβx-40 level (THP-1 cells [4]): continue to have an effect
unspecific antibody LB509				Percent of untreated [5]: 80%; concentration left after depletion [6]: 11.1 pg/mL
O=C(Nc1cc(Cl)ccc1O)Nc1cc(C(F)(F)F)ccc1Cl [NS1738]				intracellular Aβx-34 level (THP-1 cells [3]): reduces the amount; also recorded: decreased; intracellular Aβ20-x level (THP-1 cells [4]): continue to have an effect; intracellular Aβx-34 level (THP-1 cells [4]): continue to have an effect; intracellular Aβx-40 level (THP-1 cells [4]): continue to have an effect
NCCCC[C@@H]1NC(=O)/C=C/C(=O)N[C@H](C(N)=O)CCCCNC(=O)[C@@H](Cc2ccc(C(=O)c3ccccc3)cc2)NC(=O)[C@H](CC2CCCCC2)NC1=O [IDE inhibitor, 6bK]	increases	no effect	no effect	
